{
  "source": "patent US7700822B2",
  "about": "“Modulation of cytochrome P450 reductase activity” (Cancer Research Technology Limited, priority 2002, dated 2010)",
  "key": {"[1]": {"tested_on": "hepatic P450 monoxygenase activities", "test": "O-dealkylation of 7-methoxyresorufin in hepatic microsomes", "conditions": "CPRlox/- +CreALB mice, nmol metabolite per nmol P450"}, "[2]": {"tested_on": "control, CPR heterozygous null and hepatic CPR null mice", "test": "Pentobarbital sleep time (regain of righting reflex)", "format": "in vivo, mouse", "conditions": "20 mg/kg i.p.", "experimental": "c Time taken for regain of righting reflex in adult male mice of various genotypes following treatment with sodium pentobarbital at 20 mg/kg i.p. (n=3). Values are expressed as mean±SEM.\nPentobarbital sleep time—adult male CPR^lox/lox+Cre^ALB, CPR^lox/−+Cre^ALB, CPR^lox/− and CPR^+/++Cre^ALB mice (n=3) were given a single intraperitoneal (i.p.) dose of sodium pentobarbitone (Sagatal) at 20 mg/kg body weight. The time taken for the mice to lose, and subsequently to regain, their righting reflex was measured.\nCytochrome P450s involved in drug metabolism are distributed throughout the tissues of the body; it has been estimated that a significant proportion of drug metabolism (up to 30%) may be extra-hepatic. In order to test the level of extra-hepatic metabolism as well as the in vivo effects of hepatic CPR nulls on drug disposition, we measured barbiturate-induced sleeping times. This method has been used since the 1960s as an indicator of drug metabolising activity."}, "[3]": {"tested_on": "hepatic P450 monoxygenase activities", "test": "Microsomal hydroxylation of testosterone in liver microsomes", "conditions": "liver microsomes of hepatic CPR nulls of both sexes"}},
  "data": [
    {"smiles": "COc1ccc2nc3ccc(=O)cc-3oc2c1", "note": "[7-methoxyresortifin]", "values": [
      {"measurement": "reduction of O-dealkylation", "setting": "[1]; females", "value": 98.5, "unit": "%"},
      {"measurement": "reduction of O-dealkylation", "setting": "[1]; males", "value": 99.5, "unit": "%"}
    ]},
    {"smiles": "CCCC(C)C1(CC)C(=O)NC(=O)NC1=O", "note": "(stereo not drawn) [pentobarbitone]", "values": [
      {"measurement": "average sleeping period", "setting": "[2]; CPR heterozygous null mice (CPR+/-)", "value": "approximately 50 minutes"},
      {"measurement": "induction of sleep", "setting": "[2]; control mice", "value": "failed to induce sleep"},
      {"measurement": "sleeping period", "setting": "[2]; mice lacking hepatic CPR (CPRlox/- +CreALB or CPRlox/lox +CreALB)", "value": "> 2", "unit": "h"}
    ]},
    {"smiles": "C[C@]12CC[C@H]3[C@@H](CCC4=CC(=O)CC[C@@]43C)[C@@H]1CC[C@@H]2O", "note": "[testosterone]", "values": [
      {"measurement": "16-hydroxylation of testosterone", "setting": "[3]", "value": "undetectable"}
    ]}
  ]
}
